Test: Human HepG2 cell viability assay in 384 well format
Type: toxicity, cell-based
Parameters: dose 125 nL, time 70.5 hour; concentration not given beside the values
Conditions: HepG2 cells, read-out: Inhibition

Row | SMILES | cytotoxicity at 70.5 h [%]
1 | Cc1cc(C)c2[nH]c(CN3CCCC(N4CCOCC4)C3)cc(=O)c2c1 (stereo not given) | -5.41
2 | COCC(=O)N1CCC2(CCCN(Cc3cc(OC)ccc3F)C2)C1 (stereo not given) | -7.78
3 | CN(CCC(O)c1ccccc1)c1cc(N2CCOCC2)ncn1 (stereo not given) | -11
4 | CSCc1noc(C2CCC(=O)N(CCCN3CCCC3=O)C2)n1 (stereo not given) | -4.64
5 | CN(C)c1cnn(CC(=O)N2CCCCCC2)c(=O)c1 | -0.929
6 | CCc1nc(N)nc(NCCC(=O)N2CCCC2)c1C | 23.5
7 | COCc1nc(CNC(=O)C(C)n2ccnc2C(C)C)no1 (stereo not given) | -9.39
8 | O=C(C1CCC1)N1C[C@@H]2CC[C@H](C1)N(S(=O)(=O)c1cccnc1)C2 | -5.86
9 | Cn1ccc(C(=O)N2CCC3(CCC(=O)N(C4CCCC4)C3)CC2)n1 | 12.2
10 | Cc1ccccc1N1CC(C)N(C(=O)CCn2cccn2)CC1=O (stereo not given) | 15.3
11 | CCc1ncc2c(n1)CN(C(=O)c1c(C)[nH]c3c1C(=O)CCC3)C2 | 1.67
12 | CC(C)(CN1CCC(Cc2ccc(CO)cc2)C1)N1CCOCC1 (stereo not given) | -10.6
13 | CN(Cc1cc(-c2ccccc2)no1)Cc1nccn1C | 9.3
14 | N[C@H]1CN(S(=O)(=O)N2CCCCCC2)C[C@@H]1c1ccccc1 | 20
15 | COc1ccc(-c2noc(Cn3cc4c(n3)CCC4)n2)c(OC)c1OC | -2.31
16 | COCCN1CCCC2(CCN(C(=O)c3cnc(O)cn3)C2)C1=O (stereo not given) | -6.54
17 | CCCn1ncc(-c2nc3c(cnn3CC)[nH]2)c1C | -7.07
18 | O=C(O)CNc1cc(-c2cc(C(=O)NC3CC3)ccn2)c2cc[nH]c2n1 | -0.0958
19 | Cc1nn(C)cc1-c1ccnc(N(C)Cc2ccc(F)cc2)n1 | -4.85
20 | CC(C)CN1CC(C(=O)N(C)CCc2cn[nH]c2)CC1=O (stereo not given) | -6.49
21 | Cc1nc(N2Cc3cnn(Cc4ccc(F)cc4)c3C2)no1 | 13.6
22 | COc1ccc(CN2CCN(CC3CC3)[C@@H]3CS(=O)(=O)C[C@@H]32)cc1C | 10.6
23 | CCC(NC(=O)C(C)(C)C)c1ccccc1C (stereo not given) | 25.3

Row | SMILES | cytotoxicity at 70.5 h [%]
24 | COc1ccc(-c2n[nH]cc2CN(C)Cc2nnc(C)o2)c(F)c1 | 1.72
25 | CCC(Oc1ccc(N(C)S(C)(=O)=O)cc1)C(=O)N(C)C (stereo not given) | -3.36
26 | COCCN(C)CCN1CC2(CCN(C3CCCNC3)CC2)OC1=O (stereo not given) | -4.32
27 | CCCS(=O)(=O)N1CCN(c2ccnc(N3CCCCC3)n2)CC1 | -8.56
28 | CN(C)S(=O)(=O)N1CCN(c2ccnc(N3CCCCC3)n2)CC1 | -8.18
29 | COc1ccccc1NC(=O)c1cc2c([nH]c1=O)CCCC2=O | -11.1
30 | CCn1c(Cn2cncn2)nnc1C1CCN(CCN)CC1 | 17.7
31 | CCc1nnc(CN(CC)C(=O)C2CC(=O)N(CC)C2)o1 (stereo not given) | -1.3
32 | CCn1c(CN2CCCC2)nnc1C1CCN(Cc2cccnc2)CC1 | 19.5
33 | COc1ccc(NC(=O)Cn2nc(C)c(C)cc2=O)cc1 | 1.99
34 | CCCN1CCCC1c1ccc(C(=O)N2CCOCC2)s1 (stereo not given) | 0.549
35 | O=C(NCCCc1ccco1)c1ccc(N2CCOCC2)cc1 | 4.57
36 | COc1ccc2cc(C(=O)N3CC[C@H](CO)[C@H](O)C3)n(C)c2c1 | 2.19
37 | COCCN1C[C@H]2CC[C@@H]1CN(C(=O)c1ccc(Cl)cc1)C2 | -6
38 | COc1cc(-c2ccc(F)c3c2OC(CN)C3)cc(OC)c1OC (stereo not given) | 6.54
39 | CCC(=O)NCc1ccc(N2CCCCC2)cc1 | -2.28
40 | COc1cccc(-n2cc(CN(C)C(=O)c3cnc(O)cn3)cn2)c1 | -9
41 | COc1cccc(OC2CN(C(=O)c3ccoc3C)C2)c1 | 10.7
42 | Cn1ncc2c(NC3CCC3)nc(-c3ccncc3)nc21 | -0.235
43 | COC(=O)N1CCC2(CC1)CC(c1ccccc1)CN(C)C2 (stereo not given) | -0.459
44 | Cc1nc(NCCSc2cnn[nH]2)c2cccnc2n1 | 5.69
45 | CSc1ccc(CN(CCO)Cc2nccn2C)cc1 | -3.61
46 | COCCN(C)C[C@@H]1CN(c2cc(C)nc3ccccc23)C[C@@H]1CO | -14.9

Row | SMILES | cytotoxicity at 70.5 h [%]
47 | COCCCN1CCN(C(=O)C(c2cccc(F)c2)N(C)C)CC1 (stereo not given) | -5.78
48 | Cc1ccsc1CN1CCCC(CNC(=O)c2ccc(N)nc2)C1 (stereo not given) | -8.08
49 | CC(C)Cn1cncc1CNC1CCSCC1 | 42.7
50 | Cc1cnc(C(=O)N2CCCC(Cn3cc(C4CC4)nn3)C2)cn1 (stereo not given) | -10.1
51 | COc1ccccc1Oc1ncccc1CNC(=O)C1COC(=O)N1 (stereo not given) | -14.6
52 | CCCSc1ncc(-c2nccn2CCO)cn1 | -12.8
53 | COc1cccc(F)c1-c1c[nH]c(C)n1 | 11.7
54 | O=C(c1cnc(Nc2ccccc2)nc1)N1CCS(=O)(=O)CC1 | -8.85
55 | CNC(=O)Cn1c(-c2ccco2)nn(-c2ccccc2OC)c1=O | 9.58
56 | O=C(c1ccc(C2CCCO2)s1)N1CCOCC1 (stereo not given) | -5.89
57 | O=C(NCc1cn2c(n1)SCC2)c1ccc(CN2CCCCC2)cc1 | 2.13
58 | O=C1NC2(CCN(C/C=C/c3ccccc3)CC2)CC1c1ccccc1 (stereo not given) | 10.6
59 | Cc1cc2nc(C(C)C)cc(NCCNc3ncccc3C)n2n1 | 12.1
60 | CN(C)c1nc2c(c(N3CCC4(CC3)CNC(=O)C4)n1)CCCC2 | -3.91
61 | CC(C)c1nc(CCN(C)C(=O)C2COc3ccccc3C2)no1 (stereo not given) | -3.01
62 | CCc1noc(C)c1C(=O)N1C[C@H](NS(C)(=O)=O)[C@@H](C2CC2)C1 | -3.78
63 | CCc1cc(N2CCC(n3cc(C(=O)NCC(C)C)nn3)CC2)ncn1 | 0.723
64 | N[C@@H]1c2ccccc2C2(CCN(C(=O)c3ccccc3O)CC2)[C@H]1O | -6.11
65 | c1ccc(Oc2cccc(OC34CCCN(CC3)C4)c2)cc1 (stereo not given) | -12
66 | Fc1ccc(CCC2CCCN(Cc3c[nH]cn3)C2)c(F)c1 (stereo not given) | -3.29
67 | NC(=O)c1ccc(OCCCN2C[C@H](C3CC3)[C@@H](N)C2)cc1 | -5.8
68 | N#Cc1c(C2CC2)cc(-c2ccc(F)c(F)c2)nc1N | -3.46
69 | CNS(=O)(=O)CCNC(=O)[C@@]12CNC[C@@H]1CN(C1CCCC1)C2 | -0.951

Row | SMILES | cytotoxicity at 70.5 h [%]
70 | COCC(=O)N1CCc2cccc(S(=O)(=O)N3CCN(C)CC3)c2C1 | -2.39
71 | O=C1CCC(CCC(=O)N2CCCC2c2nccs2)=NN1 (stereo not given) | 8.6
72 | CCCN1CCC(Cc2noc(-c3cc4cccnc4nc3C)n2)CC1 | 0.578
73 | CC(O)c1cccc(N2CCC3(CC2)Nc2ccccc2NC3=O)n1 (stereo not given) | 21.3
74 | CSc1nccc(N2CCN(C)C3(CCC(=O)N(CC4CC4)CC3)C2)n1 (stereo not given) | 1.61
75 | O=C(c1cnccn1)N1C[C@@H]2CC[C@H](C1)N(C(=O)CCc1ccsc1)C2 | -0.591
76 | CCc1c(C)nc(C)nc1N1CCC(NCCSc2nnnn2C)CC1 | -6.49
77 | Cc1c(C(=O)NCC2CCN(Cc3c[nH]cn3)C2)[nH]c2ccccc12 (stereo not given) | 8.7
78 | c1cncc(NCCCNC2CCSC2)c1 (stereo not given) | -3.16
79 | CCCn1cc(-c2ccnc(NC3CCc4ccccc43)n2)c(C)n1 (stereo not given) | 4.9
80 | COc1ccc(C(=O)N2CC(c3ccncc3)C2)c(OC)c1OC | -5.75
81 | Cc1cc(C)n(C2CCCN(C(=O)c3ccc4c(c3)COC4)C2)n1 (stereo not given) | 1.09
82 | Cc1cc(C)n(CC2CCCN2C(=O)c2cccn3ccnc23)n1 (stereo not given) | -1.92
83 | Cc1nc(C)n(C2CCCN(C(=O)c3ccc(O)nc3)C2)n1 (stereo not given) | -5.29
84 | CC(C)=CCN1CCN(Cc2nccn2C)C(C)C1 (stereo not given) | 22
85 | CCc1nc(C2CCCN2C(=O)c2ccc(N(C)C)nn2)no1 (stereo not given) | -0.946
86 | Cc1cc(C(=O)N2CCCC2c2noc(C(C)C)n2)c(C)o1 (stereo not given) | -3.94
87 | c1cnn(CC2CCCCN2c2ncnc3ccsc23)c1 (stereo not given) | 18.2
88 | CC(=O)N(Cc1ncc(C(C)C)o1)C1CCN(Cc2cc(C)no2)C1 (stereo not given) | -4.1
89 | CC(=O)N(Cc1ncc(C(C)C)o1)C1CCN(Cc2cc(C)on2)C1 (stereo not given) | -6.93
90 | Cc1nc(CN2CCCC2c2noc(C3CC3)n2)oc1C (stereo not given) | -9.58
91 | c1cnc(-c2nc(CN3CCCC(N4CCCC4)C3)cs2)nc1 (stereo not given) | -3.36
92 | CCN(CC)CC1CCN(C(=O)CCn2cccn2)CC1 | -1.21

Row | SMILES | cytotoxicity at 70.5 h [%]
93 | COc1cccc(CC(=O)N2CCC(NCc3c[nH]nc3C)CC2)c1 | -4.19
94 | COC1CCN(C(=O)CCn2cccn2)CC1 | -8.03
95 | CCCC1CCCN(Cc2csc(-c3ncccn3)n2)CC1 (stereo not given) | -1.51
96 | Cc1nc(C2CCCN2Cc2nc(C3CC3)no2)no1 (stereo not given) | -2.5
97 | CC(=O)NC1CCCN(Cc2csc(-c3ncccn3)n2)C1 (stereo not given) | 18.7
98 | CC(=O)NCCNC(=O)c1sc(-c2ccc(Cl)cc2)nc1C | -4.15
99 | COC(=O)CNC(=O)c1sc(-c2ccc(Cl)s2)nc1C | -3.49
100 | O=C(Nc1ccc(CCN2CCOCC2)cc1)C1CC1 | -4.46
101 | CCN1CCN(C(=O)c2ccc(Cn3ccccc3=O)o2)CC1 | -9.18
102 | Cc1nc(-c2ccc(Cl)s2)sc1C(=O)NCCCC(N)=O | -4.42
103 | O=C(NCc1csc(Br)c1)N1CCC(O)CC1 | -4.25
104 | NC(=O)C1CCN(Cc2csc(-c3ncccn3)n2)CC1 | 18.7
105 | Cc1ccc(-c2nc(C(=O)N3CCCC(C(N)=O)C3)cs2)c(C)c1 (stereo not given) | -8.34
106 | Cc1ncc2c(n1)CN(Cc1nnc(-c3ccccc3)o1)CC2 | -7.67
107 | c1cncc(-c2noc(CNC3CCc4ncnn4C3)n2)c1 (stereo not given) | -5.95
108 | c1csc(-c2noc(CNC3CCc4ncnn4C3)n2)c1 (stereo not given) | -8.26
109 | CCC(=O)N1CCN(C(=O)Cn2cccn2)CC1 | -4.66
110 | O=C(Nc1ccc(CCN2CCC(O)CC2)cc1)C1CCCOC1 (stereo not given) | -3.52
111 | Cc1ccc(CCC(=O)N2CCOCC2c2ncon2)c(C)c1 (stereo not given) | 13.3
112 | c1ncn(CC2CN(Cc3nc(C4CC4)no3)CCO2)n1 (stereo not given) | 17.2
113 | CN(C)CC1CN(Cc2nc(-c3ccccn3)no2)CCO1 (stereo not given) | 16.4
114 | CC(C)c1nc(CN2CCOC(Cn3cncn3)C2)no1 (stereo not given) | -8.23
115 | CC(NC(=O)NCCCN1CCCC1=O)c1nncn1C (stereo not given) | -9.31

— ChEMBL document CHEMBL3507680, “University of Dundee, Gates Library screen for HepG2 cell viability”
